The molecules below were run on Nucleic Acid (assay: DNA cleavage activity as 70% FormI DNA cleavage).
Format: nucleic-acid assay
`O=S(=O)(CC#CCCCC#CCO)c1ccccc1` was tested, and the C70 was 1000 µM.
Work on `O=S(=O)(CC#CCCCC#CCO)c1ccc2ccccc2c1` yielded a C70 of 10 µM.
Work on `CCCC(O)C#CCS(=O)(=O)c1ccccc1` (stereo not drawn) yielded a C70 of 800 µM.
For `CCCC(O)C#CCS(=O)(=O)c1ccc2ccccc2c1` (stereo not drawn), the C70 was 5 µM.

These molecules were tested on P388 (assay: Cytotoxicity against P388 cell line(mouse T cell leukemia)).
Format: functional, cell-based
Molecule `O=S(=O)(CC#CCCCC#CCO)c1ccc2ccccc2c1` has an IC50 of 10 µM.
Molecule `O=C(OCC#CCCCC#CCS(=O)(=O)c1ccc2ccccc2c1)c1ccc2c(c1)C(=O)c1ccccc1C2=O` has an IC50 of 41 µM.
In the case of `O=C(OCC#CCCCC#CCS(=O)(=O)c1ccc2ccccc2c1)c1cccc2cc3ccccc3cc12`, the IC50 is reported as 42 µM.
For `O=C(OCC#CCCCC#CCS(=O)(=O)c1ccc2ccccc2c1)c1ccc2cc3ccccc3cc2c1`, the IC50 was 17 µM.

From ChEMBL document CHEMBL1131992, “Bifunctional 2-naphthyl propargylic sulfones exhibiting high DNA intercalating and alkylating activity” (Bioorg Med Chem Lett, 1999)
